One data set relates to AKT pS473. Briefly: Immunofluorescence of AKT pS473 in IL1β-stimulated primary astrocytes. Type of data set: cell-based. The settings on record: IL1-β for 5 h. The protocol: (§1) Immunotluorescence. […] After treatment, cells were fixed with 4% paraformaldehyde solution for 20 min at room temperature and washed 3× with DPBS for 10 min each. The cells were permeabilized using 5% horse serum and 10% Triton X in DPBS for 15 min at room temperature and blocked with 5% horse serum in PBS for 30 min at room temperature. Cells were incubated with primary antibodies in blocking buffer either overnight at 4° C. or for 2 hours at room temperature. After incubation, cells were washed 3× with PBS, blocked using 5% horse serum in PBS for 30 min at room temperature, and incubated with Cy3 red-labeled or AF488 green-labeled secondary antibodies diluted in blocking buffer for 1 hour at room temperature. The cells were washed once with PBS for 10 min, then counter-stained with DAPI. The cells were washed 3× with PBS and mounted with glass coverslips and Immu-Mount solution. Images were obtained with the Zeiss fluorescent microscope. […]

In data set [1] the test system is CK2. Briefly: CK2 kinase assay in postmortem brain lysates (Csox peptide). The settings on record: pretreatment with 20 μM for 30 min. Type of data set: biochemical, human. Here is the method:
Kinase assays. In vitro kinase assays were run using the Cysteine-Sox-Kinase Sensor AQT0696, 96 assay Kit (AssayQuant Tech, CSKS-AQT0696). Compound stocks (1.25×) at concentrations in a 2-fold dilution series were prepared in kinase reaction mixes and added in duplicate to a 384-well white-bottom NBS plates (Corning X) at 20 μL/well. Then, 5 μL active recombinant human CK2a1 kinase (Thermo Fisher PV3248, 5× in Kinase Dilution Buffer) was added to each well, quickly mixed by rotation, and incubated for 5 h at 30° C., with fluorescence readings taken every 3 min (excitation λ=365 nm, emission λ=495-505 nm) on a Promega GloMax Discover Microplate Reader. The final reaction conditions contained 10 μM AQT0696 Csox peptide, 1 mM ATP, 54 mM HEPES pH 7.5, 1.2 mM DTT, 0.012% Brij-35, 0.52 mM EGTA, 1% glycerol, 0.2 mg/mL BSA, 10 mM MgCl2, and 20 nM CK2a1. Slopes corresponding to linear reaction rates were obtained for each compound concentration (RFU/sec), normalized to DMSO controls, and IC50 values were determined by applying the dose response non-linear regression model in GraphPad Prism. […] After sonication and clarification, protein concentration was measured by BCA Assay. CK2 activity was measured as described above, except lysates were used instead of purified kinase at 2 μL/well (˜0.3-0.4 ug protein per reaction). […]

The test system of the next data set is NF-κB pS529. Briefly: Immunofluorescence of NF-κB and NF-κB pS529 in activated astrocytes. Type of data set: cell-based, human. Here is the method:
Immunotluorescence. […] After treatment, cells were fixed with 4% paraformaldehyde solution for 20 min at room temperature and washed 3× with DPBS for 10 min each. The cells were permeabilized using 5% horse serum and 10% Triton X in DPBS for 15 min at room temperature and blocked with 5% horse serum in PBS for 30 min at room temperature. Cells were incubated with primary antibodies in blocking buffer either overnight at 4° C. or for 2 hours at room temperature. After incubation, cells were washed 3× with PBS, blocked using 5% horse serum in PBS for 30 min at room temperature, and incubated with Cy3 red-labeled or AF488 green-labeled secondary antibodies diluted in blocking buffer for 1 hour at room temperature. The cells were washed once with PBS for 10 min, then counter-stained with DAPI. The cells were washed 3× with PBS and mounted with glass coverslips and Immu-Mount solution. Images were obtained with the Zeiss fluorescent microscope. The following primary antibodies were used: rabbit anti-NF-κB (1:400; CST), mouse anti-phospho NF-κB S529 (20 ug/ml; Thermo Fisher), rabbit anti-CK2A1 (1:500; Bethyl), mouse anti-IKb alpha (1:400; CST), mouse anti-phospho IKb alpha (1:50; Santa Cruz), rabbit anti-phospho CK2A1 (1:25; Thermo Fisher), rabbit anti-phospho Cdc37 (1:50; Novus), mouse anti-phospho NF-κB S529 (1:25; R&D), rabbit anti-Cdc37 (1:100; CST), mouse anti-SQSTM1 (1:50; Santa Cruz), anti rabbit-phospho NF-κB S536 (1:1600; CST), anti rabbit-Akt (pan) (1:400; CST), anti mouse-phospho Akt S473 (1:500; Sigma).
To investigate the potential effects of CK2 activity on NF-κB, NF-κB and NF-κB pS529 were measured by immunofluorescence in activated astrocytes. […] At this timepoint, NF-κB pS529 levels were similar across all treatments, possibly as a result of slower turnover by pNF-κB species.

A further data set has as its system IκB S32. Briefly: Immunoblot of IκB S32 in IL1-β-stimulated astrocytes. The class given is cell-based, human. To be noted: after 5 hours. The protocol: Western blotting. […] Cells were dissociated with 1:1 Accutase:papain for 3 min at rt, pelleted for 5 min at 800 g, and washed twice with cold DPBS. Pellets were lysed with RIPA buffer (Sigma R0278) supplemented with Halt protease inhibitor cocktail (Thermo Fisher 78445) and clarified by centrifugation (16,000 g, 10 min, 4° C.). Protein concentration was determined by BCA assay (Thermo Fisher). Proteins were denatured in 1×LDS Buffer and 2.5% beta-mercaptoethanol (X) for 10 min at 70° C., separated on Bolt 4-12% Bis-Tris Plus polyacrylamide gels (Thermo Fisher), transferred to PVDF membranes using the iBlot 2 Dry Blotting System, and blocked with 0.1% casein-PBS (Bio-Rad) for 1 h at room temperature. The blots were incubated with primary antibodies overnight at 4° C. in PBS containing 0.1% casein and 0.2% Tween-20. Antibodies used: rabbit anti-CK2a1 (Bethyl #, 1:5000), rabbit anti-CK2a2 (Bethyl #, 1:5000), mouse anti-GAPDH (Fitzgerald #10-1501, 1:20,000), mouse anti-NF-KB (CST #6956S, 1:1000), pNF-KB S529 (TFS #14-9864-82, 1:100), LC3B (CST 2775, 1:1000), ACO2 (CST 6922, 1:1000), rabbit HMGB1 (Novus #NB1002322, 1:1000), mouse anti-IκBα (CST #4814S, 1:1000), mouse anti-IκBa pS32 (SC #8404, 1:500), HA-tag (Bethyl #A190-108A, 1:20000). […] The blots were imaged using the Odyssey CLx imaging system and blots were analyzed on the ImageStudio software (LI-COR). […]
Background: Immunoblotting shows a protein as a band on a membrane.

The next data set deals with 468 human kinases. The settings on record: testing concentration of 1 μM; cited from earlier work.
Another data set deals with CK2 Y255. Briefly: Immunofluorescence of CK2 Y255 phosphorylation in nuclei of primary human astrocytes. The class given is cell-based. The settings on record: 20 μM, 5 h. The protocol:
as §1

Data set [2] deals with IL6 and IL8 expression in astrocytes. Briefly: Activation assay, ddPCR of cytokine expression in IL1-β-activated astrocytes. The class given is cell-based, human. The settings on record: 5 h treatment. Here is the method: Activation assays and ddPCR. HCA or H1-derived astrocytes were treated with vehicle (DMSO) or 20 μM compound and stimulated with IL1-B 10 ng/mL for 5 h. Cells were scraped into RNA-Bee and total RNA was purified using the Direct-zol RNA kit (Zymo Research). RNA concentration was measured using Nanodrop and RNA was reverse transcribed into cDNA using the High Capacity cDNA Reverse Transcriptase Kit (Applied Biosystems). Reaction mixes consisting of TaqMan FAM probe (IL6, IL8, CSNK2A1, CSNK2A2), control TaqMan ACTB-VIC probe (TFS 4326315E), ddPCR Supermix for Probes (Bio-Rad 186-3024), and cDNA were formed into oil droplets using the QX200 Droplet Generator. After amplification (Bio-Rad C1000 Touch Thermal Cycler) according to manufacturer's instructions, the plate was read in the QX200 Droplet Reader.

The subject of data set [3] is CK2. Put plainly: Target engagement in mouse brain homogenates (Cyclex CK2 ELISA kit). Type of data set: in vivo. The settings on record: single dose 25.6 mg/kg i.p., in comparison to FNH79. Here is the method: Animals. All animal procedures were approved by the Institutional Animal Care and Use Committee of The Salk Institute for Biological Studies. Wildtype male C57BL/6 mice (2-3 months old) were housed under standard 12-h light/dark cycles with free access to food and water. IN2.2 or vehicle (3% hydroxypropylmethylcellulose, HPMC) was injected as a single dose (25.6 mg/kg) i.p. mice (n=6 and n=3 controls). Blood was collected at t=0, 0.5, 1, 2, 4, 8, 24 via retro-orbital bleeding and allowed to clot at room temperature to separate serum and clarified. At the final timepoint, mice were anesthetized with ketamine and tissues were harvested. Drug concentrations in serum and tissues were determined by LC/MS-MS. Target engagement in the brain was determined in brain homogenates from treated animals using the Cyclex CK2 ELISA kit. […] Tolerability was assessed mice (mean±s.d., n=5) by injecting with JKT56/IN3.2 daily at 20 mg/kg and monitoring closely for any signs of toxicity based on body weight changes and behavior/appearance (e.g. signs of distress, rough coat, squinty eyes, hunched posture).
IN2.2 or vehicle (3% wt/wt hydroxpropymethylcellulose aqueous solution) was injected as a single dose (25.6 mg/kg) i.p. in 2-3 month old C57Bl/6Nhsd mice (n=6 and n=3 controls). […] Drug concentrations in serum and tissues were determined by LC/MS-MS. […]
A general note: In an ELISA, binding on a coated surface is turned into a signal by an enzyme label.

For another data set, the system named is BBB organoids. Put plainly: BBB permeability and anti-inflammatory activity in BBB organoids. The class given is cell-based. To be noted: 6.7 μM, 3 days, compared to FNH79 at 20 μM. The protocol:
BBB permeability of IN2.2 was also determined in BBB organoids (Cho et al., Nat Commun 2017, 8:15623). Pools of -50 organoids were treated for 3 days with IL1-β and DMSO or compounds (FNH79 at 20 μM, IN2.2 at 6.7 μM) and collected in RNA-Bee reagent (Amsbio). qPCR for IL6 and IL8 expression was performed (mean±s.d., n=3).

Regarding `O=C(O)c1ccc2c(c1)nc(Nc1cccc(Cl)c1)c1ccncc12` [CX4945], the “AKT pS473 levels” value in the data set on AKT pS473 was “reduced”. Besides, the “CK2-specific fluorescence of phosphorylated Csox peptide in brain lysates” value in the data set with CK2 [1] is on record as “blocked”. The “IL1-β-induced increase of NF-κB nuclear intensity” value in the data set on NF-κB pS529 (after 1 h) was “blocked”. Moreover, the “pNF-κB nuclear intensity relative to total NF-κB” value in the data set on NF-κB pS529 (after 5 hours) is recorded as “reduced”. Besides, the “IκB S32 levels” value in the data set on IκB S32 is “decreased”. The “number of other kinases inhibited >90%” value in the data set with 468 human kinases is given as 28. Besides, the pCK2/CK2 in nuclei entry in the data set with CK2 Y255 is recorded as “reduced”. Moreover, the “expression of IL6 and IL8 in IL1-β-activated astrocytes” value in data set [2] was “successfully blocked”.
As to `COc1cc(-c2cc(=O)c3cc(Br)cc(Br)c3o2)ncc1O` [IN2.2], in the data set with CK2 [3], the “target engagement in brain” value is listed as “superior target engagement”. In addition, the “IL6 and IL8 expression” value in the data set with BBB organoids (IL1-β) is “reduction”. Further, the BBB permeability entry with BBB organoids is listed as “superior permeability”.

The values are drawn from US20240197890A1, “FLAVONE DERIVATIVES AND USES IN TARGETING CK2-MEDIATED DISEASES AND CONDITIONS” (Salk Institute for Biological Studies, priority 2020, published 2024).
